This assay relates to P388 leukemia ip, CD2F1 mice, survival T/C. The assay can be described thus: NCI In Vivo Anticancer Drug Screen. Data for tumor model P388 Leukemia (intraperitoneal) in CD2F1 (CDF1) mice. The note with it: endpoint: median survival time, higher = longer survival. An outline of the steps:
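Mice carrying the transplanted tumor received test compound or vehicle. Survival was recorded in each group, and the value is the treated-group measurement divided by that of the vehicle-treated control group.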

[1] abbreviates: dose: 100.0 mg/kg/injection, schedule: Q04DX003 (ip), vehicle: Klucel (hydroxypropylcellulose) (HPC).
[2] abbreviates: dose: 50.0 mg/kg/injection, schedule: Q01DX009 (ip), vehicle: Klucel (hydroxypropylcellulose) (HPC).
Where [3] appears, read: dose: 100.0 mg/kg/injection, schedule: Q01DX009 (ip), vehicle: Klucel (hydroxypropylcellulose) (HPC).
Setting [4] is: dose: 200.0 mg/kg/injection, schedule: Q01DX009 (ip), vehicle: Klucel (hydroxypropylcellulose) (HPC).
[5] abbreviates: dose: 50.0 mg/kg/injection, schedule: Q01DX005 (ip), vehicle: Klucel (hydroxypropylcellulose) (HPC).
Where [6] appears, read: dose: 100.0 mg/kg/injection, schedule: Q01DX005 (ip), vehicle: Klucel (hydroxypropylcellulose) (HPC).
[7] abbreviates: dose: 50.0 mg/kg/injection, schedule: Q01DX005 (ip), vehicle: saline with Tween-80.
Setting [8] is: dose: 100.0 mg/kg/injection, schedule: Q01DX005 (ip), vehicle: saline with Tween-80.
The mark [9] stands for this setting: dose: 200.0 mg/kg/injection, schedule: Q01DX005 (ip), vehicle: saline with Tween-80.
Setting [10] is: dose: 6.25 mg/kg/injection, schedule: Q01DX005 (ip), vehicle: saline with Tween-80.
Setting [11] is: dose: 12.5 mg/kg/injection, schedule: Q01DX005 (ip), vehicle: saline with Tween-80.
Setting [12] is: dose: 50.0 mg/kg/injection, schedule: Q01DX009 (ip), vehicle: saline with Tween-80.
Where [13] appears, read: dose: 100.0 mg/kg/injection, schedule: Q01DX009 (ip), vehicle: saline with Tween-80.
[14] abbreviates: dose: 200.0 mg/kg/injection, schedule: Q01DX009 (ip), vehicle: saline with Tween-80.
[15] abbreviates: dose: 25.0 mg/kg/injection, schedule: Q01DX009 (ip), vehicle: saline with Tween-80.
The mark [16] stands for this setting: dose: 12.5 mg/kg/injection, schedule: Q01DX005 (ip), vehicle: Klucel (hydroxypropylcellulose) (HPC).
The mark [17] stands for this setting: dose: 25.0 mg/kg/injection, schedule: Q01DX005 (ip), vehicle: Klucel (hydroxypropylcellulose) (HPC).

The structures appear in SMILES notation. Where “and” joins values, the source holds several entries; their conditions need not be identical. Equal entries are not always repeated. Inconclusive results and toxic doses are left out.

With `CN1c2ccccc2Sc2cc(N3c4ccccc4Sc4ccc(C(F)(F)F)cc43)c(C(F)(F)F)cc21`, the T/C is, setting by setting: under setting [1], 101 % of control; (dose: 200.0 mg/kg/injection, schedule: Q04DX003 (ip), vehicle: Klucel (hydroxypropylcellulose) (HPC)) 100 % of control; (dose: 400.0 mg/kg/injection, schedule: Q04DX003 (ip), vehicle: Klucel (hydroxypropylcellulose) (HPC)) 98 % of control.

Regarding `O=C1NC(=O)C23CC=CCC12CCCC3` (configuration not stated), the T/C under setting [2] was 101 % of control, the T/C under setting [3] is 100 % of control and the T/C under setting [4] was 100 % of control.

Take `CCOC(=O)c1cc(=O)[nH]c2cc(N)ccc12`: the T/C reads like this: (dose: 60.0 mg/kg/injection, schedule: Q01DX005 (ip), vehicle: Klucel (hydroxypropylcellulose) (HPC)) 97 % of control; (dose: 120.0 mg/kg/injection, schedule: Q01DX005 (ip), vehicle: Klucel (hydroxypropylcellulose) (HPC)) 93 % of control; (dose: 240.0 mg/kg/injection, schedule: Q01DX005 (ip), vehicle: Klucel (hydroxypropylcellulose) (HPC)) 91 % of control.

Regarding `CCC(=NCCN=C(CC)c1cc(C)ccc1O)c1cc(C)ccc1O`, the T/C was 101 % of control under setting [5]; 108 % of control under setting [6]; 111 % of control (dose: 200.0 mg/kg/injection, schedule: Q01DX005 (ip), vehicle: Klucel (hydroxypropylcellulose) (HPC)).

Regarding `Cc1ccc(S(=O)(=O)N/N=C2\CC/C(=N\NS(=O)(=O)c3ccc(C)cc3)[C@@H]3CC=CC[C@H]23)cc1`, the T/C is 92 % of control under setting [7], 92 % of control under setting [8] and 89 % of control under setting [9].

As to `CCn1c2ccccc2c2cc(N=Nc3cc4ccccc4cc3O)ccc21`, the T/C is, setting by setting: under setting [2], 104 % of control; under setting [3], 100 % of control; under setting [4], 104 % of control.

Consider `Cc1cnc(C)n2cnnc12`, for which the T/C runs as follows: (dose: 100.0 mg/kg/injection, schedule: Q04DX003 (ip), vehicle: saline) 93 % of control; (dose: 200.0 mg/kg/injection, schedule: Q04DX003 (ip), vehicle: saline) 95 % of control; (dose: 400.0 mg/kg/injection, schedule: Q04DX003 (ip), vehicle: saline) 98 % of control.

`COc1ccc(C(C)=O)cc1CSC(=S)N1CCSCC1`: the T/C is 104 % of control (dose: 15.0 mg/kg/injection, schedule: Q01DX005 (ip), vehicle: saline with Tween-80); 99 % of control (dose: 30.0 mg/kg/injection, schedule: Q01DX005 (ip), vehicle: saline with Tween-80); 90 % of control and 92 % of control (dose: 60.0 mg/kg/injection, schedule: Q01DX005 (ip), vehicle: saline with Tween-80); 88 % of control (dose: 240.0 mg/kg/injection, schedule: Q01DX005 (ip), vehicle: saline with Tween-80).

As to `CC1(c2ccc(S(=O)(=O)c3ccccc3)cc2)OC(=O)C=CC1=O` (configuration not stated), the T/C is 89 % of control under setting [10]; 89 % of control under setting [11]; 115 % of control (dose: 25.0 mg/kg/injection, schedule: Q01DX005 (ip), vehicle: saline with Tween-80); 120 % of control under setting [7].

As for `CC(=O)c1ccc(Cl)c(-n2cccc2)c1`, the T/C is 95 % of control under setting [5] and 101 % of control under setting [6].

Consider `CCC(c1ccc(OC)cc1)C(NCC(=O)N/N=C/c1ccc(O)c(OC)c1)c1ccc(OC)cc1` (configuration not stated), for which the T/C (dose: 100.0 mg/kg/injection, schedule: Q01DX001 (ip), vehicle: saline with Tween-80) is 107 % of control; the T/C (dose: 200.0 mg/kg/injection, schedule: Q01DX001 (ip), vehicle: saline with Tween-80) is 107 % of control; the T/C (dose: 400.0 mg/kg/injection, schedule: Q01DX001 (ip), vehicle: saline with Tween-80) is 101 % of control.

Take `CC1(C)CC(C#N)CC(C)(C)N1O`: under setting [1], the T/C is 100 % of control.

On to `CNC(=O)OCc1c(-c2ccccc2)c(-c2ccccc2)n(-c2ccc(OC)cc2)c1COC(=O)NC`, for which the T/C was 106 % of control (dose: 12.5 mg/kg/injection, schedule: Q01DX009 (ip), vehicle: distilled water + Tween-80); 103 % of control and 119 % of control (dose: 25.0 mg/kg/injection, schedule: Q01DX009 (ip), vehicle: distilled water + Tween-80); 102 % of control and 119 % of control (dose: 50.0 mg/kg/injection, schedule: Q01DX009 (ip), vehicle: distilled water + Tween-80); 116 % of control and 124 % of control (dose: 100.0 mg/kg/injection, schedule: Q01DX009 (ip), vehicle: distilled water + Tween-80).

In the case of `COc1cc(OC)c(NC(=O)Oc2cc(C)c(Br)c(C)c2)cc1Cl`, the T/C was 91 % of control under setting [12], 95 % of control under setting [13] and 108 % of control under setting [14].

With `COC(=O)c1c(-c2ccccc2)c(-c2ccccc2)n(-c2ccccc2)c1/N=C/N(C)C`, the T/C under setting [12] was 97 % of control, the T/C under setting [13] is 90 % of control and the T/C under setting [14] is 90 % of control.

On to `CCCCCCCCCCC[CH2][Sn]([CH3])([CH3])[O]C(C)=O`, for which the T/C was 99 % of control (dose: 12.5 mg/kg/injection, schedule: Q01DX009 (ip), vehicle: saline); 99 % of control (dose: 25.0 mg/kg/injection, schedule: Q01DX009 (ip), vehicle: saline); 94 % of control (dose: 50.0 mg/kg/injection, schedule: Q01DX009 (ip), vehicle: saline).

Take `COc1ccc(C(=O)ON(c2ccccc2)C(C)(C)C)cc1`: the T/C was 97 % of control under setting [15], 103 % of control under setting [12] and 97 % of control under setting [13].

On to `N#CC1(Nc2ccccc2)CCCCC1`, for which the T/C is 90 % of control (dose: 6.25 mg/kg/injection, schedule: Q01DX009 (ip), vehicle: saline with Tween-80); 95 % of control (dose: 12.5 mg/kg/injection, schedule: Q01DX009 (ip), vehicle: saline with Tween-80); 90 % of control under setting [15].

Turning to `O=C(CCSc1nc(-c2ccccc2)c(-c2ccccc2)o1)N1CCCCC1`, the T/C is 101 % of control under setting [2], 101 % of control under setting [3] and 117 % of control under setting [4].

With `CC1=C(O)C(=O)C=C2C1=CC=C1[C@@]2(C)CCC2(C)[C@@H]3C[C@@H](C)C(=O)C[C@]3(C)CC[C@]12C` (some centres not stated), the T/C was 109 % of control under setting [16]; 101 % of control under setting [17]; 90 % of control under setting [5]; 97 % of control under setting [6]; 97 % of control (dose: 260.0 mg/kg/injection, schedule: Q01DX005 (ip), vehicle: Klucel (hydroxypropylcellulose) (HPC)).

With `O=[N+]([O-])c1c(Cl)nc(-c2ccccc2)nc1Cl`, the T/C (dose: 6.25 mg/kg/injection, schedule: Q01DX005 (ip), vehicle: Klucel (hydroxypropylcellulose) (HPC)) is 101 % of control; the T/C under setting [16] is 93 % of control; the T/C under setting [17] was 100 % of control.

In the case of `CC(NNC(=S)N(C)C1CCCCC1)c1cc2ccccc2cn1` (configuration not stated), the T/C is 107 % of control under setting [10]; 120 % of control under setting [11]; 151 % of control and 159 % of control under setting [7].

Consider `O=c1c(=O)c2cc(O)ccc12`, for which the T/C is, setting by setting: under setting [7], 109 % of control; under setting [8], 105 % of control; under setting [9], 100 % of control.

Consider `COCCOC(=O)CCCCC(=O)OCCOC`, for which the T/C was 100 % of control under setting [13]; 100 % of control (dose: 100.0 mg/kg/injection, schedule: Q04DX003 (ip), vehicle: saline sonified); 104 % of control under setting [14]; 100 % of control (dose: 200.0 mg/kg/injection, schedule: Q04DX003 (ip), vehicle: saline sonified); 109 % of control (dose: 400.0 mg/kg/injection, schedule: Q01DX009 (ip), vehicle: saline with Tween-80); 95 % of control (dose: 400.0 mg/kg/injection, schedule: Q04DX003 (ip), vehicle: saline sonified).

The record behind these values is PubChem BioAssay AID330 (DTP/NCI, 2004).
